From US12662460B2, “Compositions for use for the inhibition of dihydroorotate dehydrogenase” (OHIO STATE INNOVATION FOUNDATION, priority 2019, dated 2026)

Experiments:
[1] = biological target: T1, recombinant human DHODH (Homo sapiens, UniProt Q02127); experiment: DHODH enzymatic assay (DCIP reduction); type: biochemical; details: recombinant human enzyme, 25° C.; read-out: h-DHODH IC50
T1 construct: made in house
Method: DHODH Enzymatic Assay: DHODH activity was determined at 25° C. following the reduction of 2,6-dichloroindophenol sodium salt (DCIP) at 600 nm (ε=18 800 M^−1 cm^−1) on a spectrophotometer. The reaction medium used contained 50 mM Tris-HCl, pH 8.0, 0.1% Triton X-100, 0.1 mM LDHO, 0.025 mM CoQ1, and 0.06 mM DCIP. The reaction was started by addition of the enzyme. The inhibitory potency of the compounds was evaluated by measuring the initial velocity of the reaction either in the absence or in the presence of the compounds at the indicated concentrations. The DHODH enzyme used was the recombinant human enzyme prepared as previously described (Hëlène Munier-Lehmann, et al., J. Med. Chem. 2015, 58:860-877).

[2] = system: OCI-AML3; experiment: MTS assay for cell growth/viability, OCI-AML3; type: cell-based; details: Homo sapiens, OCI-AML-3, 96 hours
Method: (§1) MTS assay for cell growth/viability: Mitochondrial activity was measured to determine cell proliferation using an MTS assay ([…]). Metabolically active cells convert MTS tetrazolium salt into a purple formazan product that is soluble in tissue culture medium. The amount of formazan measured at 490 nm absorbance is proportional to the number of proliferating cells. MTS assays in AML cell lines were carried out with 20K cells plated per well in 96-well plates with Cpd3 or brequinar in a dose series ranging from 0.0001 to 10 μM. Triplicate wells were set up for each condition. At 96 hours, the MTS reagent was added and after approximately 4 hours the plates were read in a spectrophotometer.
(§2) Biological Activity. Cell proliferation assays were carried out using the MTS assay described herein using two AML cell lines (i.e., MOLM13 and OCI-AML3) with varied genetic backgrounds. The assays were carried out in a blinded fashion.

[3] = system: MOLM13; experiment: MTS assay for cell growth/viability, MOLM13; type: cell-based; details: Homo sapiens, MOLM-13, 96 hours
Method: as §1, §2

T1 sequence (Q02127 whole entry): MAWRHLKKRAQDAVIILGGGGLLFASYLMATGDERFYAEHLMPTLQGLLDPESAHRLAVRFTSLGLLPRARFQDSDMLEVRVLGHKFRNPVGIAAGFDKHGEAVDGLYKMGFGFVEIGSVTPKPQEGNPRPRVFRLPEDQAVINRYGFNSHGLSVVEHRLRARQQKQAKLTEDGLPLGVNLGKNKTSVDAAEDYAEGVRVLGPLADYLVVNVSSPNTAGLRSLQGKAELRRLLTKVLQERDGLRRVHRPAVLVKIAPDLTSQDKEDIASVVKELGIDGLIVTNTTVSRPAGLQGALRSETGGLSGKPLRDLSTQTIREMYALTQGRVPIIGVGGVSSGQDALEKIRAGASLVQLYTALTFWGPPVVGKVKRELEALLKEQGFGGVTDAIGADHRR

Compound | IC50 [1] [nM] | IC50 [2] [nM] | IC50 [3] [nM]
CCOc1ccc(-c2ccc(-c3cc(C(=O)O)c4cc(F)ccc4n3)cn2)cc1 [Cpd1, 2-(6-(4-ethoxyphenyl)pyridin-3-yl)-6-fluoroquinoline-4-carboxylic acid] | 628 | 4320 | 5350
CCOc1ccc(-c2cnc(-c3cc(C(=O)O)c4cc(F)ccc4n3)nc2)cc1 [Cpd3, 2-(5-(4-ethoxyphenyl)pyrimidin-2-yl)-6-fluoroquinoline-4-carboxylic acid] | – | 3640 | –
CCOc1ccc(-c2cnc(-c3cc(C(=O)O)c4cc(F)ccc4n3)cn2)cc1 [Cpd4, 2-(5-(4-ethoxyphenyl)pyrazin-2-yl)-6-fluoroquinoline-4-carboxylic acid] | 500 | 2100 | –
CCOc1cccc(-c2cnc(-c3cc(C(=O)O)c4cc(F)ccc4n3)nc2)c1 [Cpd6, 2-(5-(3-ethoxyphenyl)pyrimidin-2-yl)-6-fluoroquinoline-4-carboxylic acid] | 1820 | > 10000 | –
CCOc1cccc(-c2ccc(-c3cc(C(=O)O)c4cc(F)ccc4n3)nn2)c1 [Cpd7, 2-(6-(3-ethoxyphenyl)pyridazin-3-yl)-6-fluoroquinoline-4-carboxylic acid] | 605 | > 10000 | –

Results, then the compound that gave them:

IC50 [1] [nM] | IC50 [2] [nM] | IC50 [3] [nM] | Compound
317 | 709 | 571 | CCOc1ccc(-c2ccc(-c3cc(C(=O)O)c4cc(F)ccc4n3)nc2)cc1 [Cpd2, 2-(5-(4-ethoxyphenyl)pyridin-2-yl)-6-fluoroquinoline-4-carboxylic acid]
4750 | > 10000 | – | CCOc1ccc(-c2ccc(-c3cc(C(=O)O)c4cc(F)ccc4n3)nn2)cc1 [Cpd5, 2-(6-(4-ethoxyphenyl)pyridazin-3-yl)-6-fluoroquinoline-4-carboxylic acid]
